Entries after “also recorded” stand apart in the source; their conditions may differ.
Legend:
bEND3 cells [1] = assay: OGD-induced claudin-5 redistribution between subcellular fractions, Western blot; assay type: cell-based, Mouse; conditions: SB-3CT, 2 h OGD; Western blot of subcellular fractions
Method: OGD treatment. To mimic acute ischemia-like conditions in vitro, bEND3 cells were exposed to OGD for 2 h as we described previously (Furuichi et al., 2005). In brief, confluent bEND3 cells were subjected to an ischemic injury by transferring cultures to glucose free medium (DMEM without glucose) pre-equilibrated with 95% N2 and 5% CO2. Cells were then incubated in a humidified airtight chamber (Billups-Rothberg Inc.) equipped with an air lock and flushed with 95% N2 and 5% CO2 for 15 min. The chamber was then sealed and kept at 37° C. for another 105 min. The oxygen concentration was below 0.2% as monitored by an oxygen analyzer (Sable Systems). Control cultures were incubated with normal DMEM medium without FBS for 2 h at 37° C. in 95% air and 5% CO2. Immediately after OGD treatment, the conditioned media (CM) and cells were collected separately for further analyses.
Preparation of total cell lysate, subcellular fractions. To reveal a redistribution of MMP-2/9, Caveolin-1 (Cav-1) and TJ proteins in OGD-treated bEnd3 cells, three subcellular fractions including membranous, cytosolic, and cytoskeletal fractions were extracted using ProteoExtract Subcellular Proteome Extraction Kit (Calbiochem) according to manufacturer's instruction. […]

bEND3 cells [2] = assay: Immunostaining of occludin in OGD-treated bEND3 cells (confocal); assay type: cell-based, Mouse
Method: (§1) Cell culture. Mouse brain microvascular endothelial cells bEND3 (American Type Culture Collection) were grown as a monolayer in DMEM with 15% fetal bovine serum (FBS), 100 U/ml penicillin and 100 μg/ml streptomycin at 37° C. in a humidified incubators with 5% CO2 and 95% room air. The cells were subcultured into 60 mm dishes coated with type I collagen (Nakamuta et al., 2005) and allowed to grow to confluence before exposure to OGD for 2 h. After OGD treatment, cell toxicity was measured by lactate dehydrogenase (LDH) assay using a CytoTox 96 Non-Radioactive Cytotoxicity Assay Kit (Promega). Besides endothelial cells, we also tested the effect of OGD on MMP-2/9 secretion in two mouse neural cell lines, C8-D1A (astrocyte) and […]. Both cell lines were purchased from American Type Culture Collection. C8-D1A cells and SH-SY5Y cells were cultured in DMEM or DMEM/F12 (1:1) (Sigma) containing 10% FBS, 100 U/ml penicillin and 100 μg/ml streptomycin, respectively. These cells were allowed to grow to 80-90% confluence before exposure to 2-h OGD treatment.
(§2) OGD treatment. To mimic acute ischemia-like conditions in vitro, bEND3 cells were exposed to OGD for 2 h as we described previously (Furuichi et al., 2005). […] The oxygen concentration was below 0.2% as monitored by an oxygen analyzer (Sable Systems). […]

bEND3 cells [3] = assay: OGD-induced occludin degradation in bEND3 cells, Western blot of total cellular extracts; assay type: cell-based, Mouse
Method: as §1, §2

occludin = molecular target: T1, occludin (UniProt Q61146)
T1 sequence: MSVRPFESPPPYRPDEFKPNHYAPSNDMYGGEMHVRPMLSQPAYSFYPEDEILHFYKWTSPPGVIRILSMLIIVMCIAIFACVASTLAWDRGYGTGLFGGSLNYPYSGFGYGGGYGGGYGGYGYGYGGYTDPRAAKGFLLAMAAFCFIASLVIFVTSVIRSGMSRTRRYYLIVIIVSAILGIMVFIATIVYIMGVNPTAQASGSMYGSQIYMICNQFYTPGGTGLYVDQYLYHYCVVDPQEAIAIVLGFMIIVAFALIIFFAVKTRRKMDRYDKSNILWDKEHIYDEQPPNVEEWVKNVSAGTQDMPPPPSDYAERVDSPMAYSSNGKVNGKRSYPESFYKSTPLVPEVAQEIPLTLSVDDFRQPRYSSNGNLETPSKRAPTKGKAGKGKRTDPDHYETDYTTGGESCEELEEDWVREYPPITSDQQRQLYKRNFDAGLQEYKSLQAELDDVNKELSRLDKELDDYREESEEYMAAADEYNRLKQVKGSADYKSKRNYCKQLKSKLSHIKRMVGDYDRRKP

[4] = tPA thrombolysis, cited from earlier work

Molecule: O=S(=O)(CC1CS1)c1ccc(Oc2ccccc2)cc1 (centres unmarked) [SB-3CT]
- OGD-induced claudin-5 redistribution between subcellular fractions (bEND3 cells [1]): had no effect on its redistribution between subcellular fractions; also recorded: had no effect on OGD-induced claudin-5 redistribution
- occludin immunostaining reduction in OGD-treated cells (bEND3 cells [2]; SB-3CT pretreatment, 2 h OGD, confocal microscopy): completely inhibited occludin reduction in OGD-treated cells
- occludin immunostaining in control cells (bEND3 cells [2]; SB-3CT-treated control cells vs vehicle-treated control cells): slight stronger immunostaining (brighter fluorescence) for occludin
- OGD-induced occludin degradation (occludin protein in total cellular extracts) (bEND3 cells [3]; SB-3CT 10 μM, 2 h before and during 2 h OGD, Western blot, vs vehicle (DMSO) plus OGD): completely abolished OGD-induced occludin reduction; also recorded: completely inhibited OGD-induced occludin degradation
- occludin level in control (non-OGD) bEND3 cells (bEND3 cells [3]; SB-3CT-treated control cells compared to vehicle-treated cells (DMSO)): slight increase (not statistically significant) in occludin level

Molecule: active MMP-9
- occludin degradation in bEND3 extracts (occludin): active MMP-9-induced occludin degradation

Molecule: tPA: tissue plasminogen activator, the only FDA-approved therapy for acute ischemic stroke
- mortality rate in stroke patients who have such bleeding ([4]; patients with symptomatic ICH): 50%
- increase in the incidence of symptomatic ICH ([4]; stroke patients): 10 fold

Source: patent US10591491B1, “Blood biomarker for early blood brain barrier disruption in ischemic stroke” (STC.UNM, priority 2011, dated 2020)
